Source: ChEMBL document CHEMBL6092191, “Advancing Cancer Immunotherapy through Engineering New PD-L1 Degraders: A Comprehensive Study from Small Molecules to PD-L1-Specific Peptide-Drug Conjugates” (J Med Chem, 2024)
Activity calls are given as the source filed them. The calls are words filed in the database; no cut-off is given here.

Assays:
[1] = test system: Lewis lung carcinoma cell line; test: Anticancer activity against Lewis lung carcinoma cells xenografted in C57BL/6 mouse model assessed as tumor growth inhibition at 10 mg/kg, ip administered daily for 10 days; assay type: functional, organism-based; conditions: time 10.0 day
[2] = test system: Lewis lung carcinoma cell line; test: Antitumor T-cell immune response in Lewis lung carcinoma cells xenografted in C57BL/6 mouse model assessed as increase in GrB level in tumor at 10 mg/kg, ip administered daily for 10 days by ELISA; assay type: functional, organism-based; conditions: time 10.0 day
[3] = Toxicity in C57BL/6 mouse model xenografted with […] cells assessed as obvious damage in spleen at 10 mg/kg, ip administered daily for 10 days by H and E staining based analysis; assay type: organism-based; conditions: in vivo, 240 h, time 10 day
[4] = Toxicity in C57BL/6 mouse model xenografted with […] cells assessed as obvious damage in kidney at 10 mg/kg, ip administered daily for 10 days by H and E staining based analysis; assay type: organism-based; conditions: in vivo, 240 h, time 10 day
[5] = test system: Lewis lung carcinoma cell line; test: Antitumor T-cell immune response in Lewis lung carcinoma cells xenografted in C57BL/6 mouse model assessed as increase in TNF-alpha level in tumor at 10 mg/kg, ip administered daily for 10 days by ELISA; assay type: functional, organism-based; conditions: time 10.0 day
[6] = test system: Lewis lung carcinoma cell line; test: Antitumor T-cell immune response in Lewis lung carcinoma cells xenografted in C57BL/6 mouse model assessed as decrease in CD3+ CD4+ population in CD45+ T cells in tumor at 10 mg/kg, ip administered daily for 10 days by flow cytometry; assay type: functional, organism-based; conditions: time 10.0 day
[7] = Toxicity in C57BL/6 mouse model xenografted with […] cells assessed as obvious damage in heart at 10 mg/kg, ip administered daily for 10 days by H and E staining based analysis; assay type: organism-based; conditions: in vivo, 240 h, time 10 day
[8] = Toxicity in C57BL/6 mouse model xenografted with […] cells assessed as change in AST level at 10 mg/kg, ip administered daily for 10 days; assay type: organism-based, Blood; conditions: in vivo, 240 h, time 10 day
[9] = test system: Lewis lung carcinoma cell line; test: Antitumor T-cell immune response in Lewis lung carcinoma cells xenografted in C57BL/6 mouse model assessed as increase in CD3+ CD8+ infiltration in CD45+ T cells in tumor at 10 mg/kg, ip administered daily for 10 days by flow cytometry; assay type: functional, organism-based; conditions: time 10.0 day
[10] = target: COP9 signalosome complex subunit 5 (Homo sapiens) (UniProt Q92905); test: Induction of PD-L1 degradation in human NCI-H460 cells at 10 uM incubated for 24 hrs by Western blot analysis; assay type: cell-based
COP9 signalosome complex subunit 5 (Homo sapiens), sequence (Q92905 2-334 limits assumed, one chain of several): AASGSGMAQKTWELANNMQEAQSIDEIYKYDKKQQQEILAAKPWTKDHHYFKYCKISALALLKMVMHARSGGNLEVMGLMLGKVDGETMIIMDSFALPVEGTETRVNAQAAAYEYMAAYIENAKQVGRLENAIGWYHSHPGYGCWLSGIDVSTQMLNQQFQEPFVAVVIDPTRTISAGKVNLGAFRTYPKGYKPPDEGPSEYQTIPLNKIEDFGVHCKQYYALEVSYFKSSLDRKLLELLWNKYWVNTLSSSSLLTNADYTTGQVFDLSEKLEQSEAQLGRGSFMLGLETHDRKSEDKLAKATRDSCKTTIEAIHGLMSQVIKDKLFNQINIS

[11] = Toxicity in C57BL/6 mouse model xenografted with […] cells assessed as obvious damage in liver at 10 mg/kg, ip administered daily for 10 days by H and E staining based analysis; assay type: organism-based; conditions: in vivo, 240 h, time 10 day
[12] = test system: Lewis lung carcinoma cell line; test: Antitumor T-cell immune response in Lewis lung carcinoma cells xenografted in C57BL/6 mouse model assessed as increase in IFN-gamma level in tumor at 10 mg/kg, ip administered daily for 10 days by ELISA; assay type: functional, organism-based; conditions: time 10.0 day
[13] = Drug uptake in human PC-9 cells at 10 uM by fluorescence microscopy; assay type: ADME, cell-based; conditions: pc-9, 10 µM
[14] = Toxicity in C57BL/6 mouse model xenografted with […] cells assessed as body weight loss at 10 mg/kg, ip administered daily for 10 days; assay type: organism-based; conditions: in vivo, 240 h, time 10 day
[15] = Toxicity in C57BL/6 mouse model xenografted with […] cells assessed as change in BUN level at 10 mg/kg, ip administered daily for 10 days; assay type: organism-based, Blood; conditions: in vivo, 240 h, time 10 day
[16] = test system: Lewis lung carcinoma cell line; test: Antitumor T-cell immune response in Lewis lung carcinoma cells xenografted in C57BL/6 mouse model assessed as increase in ratio of CD8+ to CD4+ T cells in tumor at 10 mg/kg, ip administered daily for 10 days by flow cytometry; assay type: functional, organism-based; conditions: time 10.0 day
[17] = Toxicity in C57BL/6 mouse model xenografted with […] cells assessed as change in ALT level at 10 mg/kg, ip administered daily for 10 days; assay type: organism-based, Blood; conditions: in vivo, 240 h, time 10 day
[18] = Toxicity in C57BL/6 mouse model xenografted with […] cells assessed as obvious damage in lung at 10 mg/kg, ip administered daily for 10 days by H and E staining based analysis; assay type: organism-based; conditions: in vivo, 240 h, time 10 day
[19] = test system: Lewis lung carcinoma cell line; test: Anticancer activity against Lewis lung carcinoma cells xenografted in C57BL/6 mouse model at 10 mg/kg, ip administered daily for 10 days relative to control; assay type: functional; conditions: 240 h, time 10 day, read-out: TGI
[20] = Toxicity in C57BL/6 mouse model xenografted with […] cells assessed as change in serum creatinine level at 10 mg/kg, ip administered daily for 10 days; assay type: organism-based; conditions: in vivo, 240 h, time 10 day
[21] = test system: Lewis lung carcinoma cell line; test: Antitumor activity against Lewis lung carcinoma cells xenografted in C57BL/6 mouse model at 24.5 mg/kg, ip administered daily for 8 days relative to control; assay type: functional; conditions: 192 h, time 8 day, read-out: TGI
[22] = test system: 3T3-L1; test: Antiproliferative activity against mouse 3T3-L1 cells at 10 uM incubated for 4 days; assay type: toxicity, cell-based; conditions: 3t3-l1, 96 h, time 4 day
[23] = Antiproliferative activity against human HTori-3 cells at 10 uM incubated for 4 days; assay type: toxicity, cell-based; conditions: htori-3, 96 h, time 4 day
[24] = test system: Lewis lung carcinoma cell line; test: Antitumor T-cell immune response in Lewis lung carcinoma cells xenografted in C57BL/6 mouse model assessed as increase in ratio of CD8+ to CD4+ T cells in tumor at 24.5 mg/kg, ip administered daily for 8 days by flow cytometry; assay type: functional, organism-based; conditions: time 8.0 day
[25] = target: COP9 signalosome complex subunit 5 (Homo sapiens) (UniProt Q92905); test: Induction of PD-L1 degradation in human NCI-H460 cells at 10 uM incubated for 2 days by Western blot analysis; assay type: cell-based; conditions: time 2.0 day
[26] = test system: HEK-293T; test: Antiproliferative activity against HEK293T cells at 10 uM incubated for 4 days; assay type: toxicity, cell-based; conditions: human, 96 h, time 4 day
[27] = target: COP9 signalosome complex subunit 5 (Homo sapiens) (UniProt Q92905); test: Induction of PD-L1 degradation in human NCI-H460 cells at 10 uM by Western blot analysis; assay type: cell-based; conditions: time <= 36.0 hrs
[28] = test system: Mus musculus; test: Biodistribution in C57BL/6 mouse model bearing […] lung carcinoma cells assessed as increase in fluorescence signal in tumor at 2 mg/kg, iv measured 4 hrs post-injection by IVIS analysis; assay type: ADME, organism-based; conditions: in vivo

For `COc1cc2c(cc1OC)-c1cc3ccc(OC)c(OCCCCCN)c3c[n+]1CC2.[Cl-]`, the Activity [1] was “Active”, the Activity [2] was “Active” and the Activity [3] was “Non-toxic”. For the same compound, the Activity [4] was “Non-toxic”, the Activity [5] was “Active” and the Activity [6] was “Active”. For the same compound, the Activity [7] was “Non-toxic”, the Activity [8] was “Non-toxic” and the Activity [9] was “Active”. For the same compound, the Activity [10] was “Active”, the Activity [11] was “Non-toxic” and the Activity [12] was “Active”. The Drug uptake [13] was “Time-dependent-effect”, the Activity [14] was “Non-toxic” and the Activity [15] was “Non-toxic”. The Activity [16] was “Active”, the Activity [17] was “Non-toxic” and the Activity [18] was “Non-toxic”. For the same compound, the inhibition in vivo at 10 mg/kg [19] was 68% and the Activity [20] was “Non-toxic”.
With `C[C@@H](O)[C@H](NC(=O)[C@@H]1CCCN1C(=O)[C@H](CCCCN)NC(=O)[C@H](CO)NC(=O)[C@H](Cc1ccc(O)cc1)NC(=O)[C@H](CC(N)=O)NC(=O)CCCCCNC(=O)[C@@H](N)CS)C(=O)N[C@@H](CC(=O)O)C(=O)N[C@@H](CCCNC(=N)N)C(=O)N[C@@H](CCC(N)=O)C(=O)N[C@@H](Cc1ccc(O)cc1)C(=O)N[C@@H](Cc1cnc[nH]1)C(=O)N[C@@H](Cc1ccccc1)C(=O)O` the inhibition in vivo at 24.5 mg/kg [21] was 37%, the Activity [22] was “Non-toxic” and the Activity [23] was “Non-toxic”. The Activity [24] was “Active”, the Activity [25] was “inactive” and the Activity [26] was “Non-toxic”.
For `COc1cc2c(cc1OC)-c1cc3ccc(OC)c(OCCOCCOCCN)c3c[n+]1CC2.[Cl-]`, the Activity [10] was “Active” and the Drug uptake [13] was “Time-dependent-effect”.
For `COc1cc2c(cc1OC)-c1cc3ccc(OC)c(OCCNC(=O)OCc4ccc(SSC[C@H](N)C(=O)NCCCCCC(=O)N[C@@H](CC(N)=O)C(=O)N[C@@H](Cc5ccc(O)cc5)C(=O)N[C@@H](CO)C(=O)N[C@@H](CCCCN)C(=O)N5CCC[C@H]5C(=O)N[C@H](C(=O)N[C@@H](CC(=O)O)C(=O)N[C@@H](CCCNC(=N)N)C(=O)N[C@@H](CCC(N)=O)C(=O)N[C@@H](Cc5ccc(O)cc5)C(=O)N[C@@H](Cc5cnc[nH]5)C(=O)N[C@@H](Cc5ccccc5)C(=O)O)[C@@H](C)O)cc4)c3c[n+]1CC2.[Cl-]`, the Activity [22] was “Toxic”, the Activity [23] was “Toxic” and the Activity [25] was “Active”. The Activity [26] was “Toxic”.
For `COc1cc2c(cc1OC)-c1cc3ccc(OC)c(OC)c3c[n+]1CC2.[Cl-]` [PALMATINE CHLORIDE], the Activity [1] was “Active; Highest Efficacy Of Tumor Growth Suppression Among Pmt Derivatives”, the Activity [2] was “Active” and the Activity [3] was “Non-toxic”. For the same compound, the Activity [4] was “Non-toxic”, the Activity [5] was “Active” and the Activity [6] was “Active”. For the same compound, the Activity [7] was “Non-toxic”, the Activity [8] was “Non-toxic” and the Activity [9] was “Active”. For the same compound, the Activity [10] was “Active”, the Activity [11] was “Non-toxic” and the Activity [12] was “Active”. The Drug uptake [13] was “Time-dependent-effect”, the Activity [14] was “Non-toxic” and the Activity [15] was “Non-toxic”. For the same compound, the Activity [16] was “Active”, the Activity [17] was “Non-toxic” and the Activity [18] was “Non-toxic”. The Activity [20] was “Non-toxic”.
With `COc1ccc2cc3[n+](cc2c1OCCCCCN)CCc1cc2c(cc1-3)OCO2.[Cl-]` the Activity [10] was “Active” and the Drug uptake [13] was “Time-dependent-effect”.
In the case of `COc1ccc2cc3[n+](cc2c1OC)CCc1cc2c(cc1-3)OCO2.[Cl-]` [BERBERINE CHLORIDE], the Activity [10] is reported as “Active” and the Drug uptake [13] is reported as “Time-dependent-effect”.
In the case of `COc1ccc2cc3[n+](cc2c1OCCOCCOCCN)CCc1cc2c(cc1-3)OCO2.[Cl-]`, the Activity [10] is reported as “Active” and the Drug uptake [13] is reported as “Time-dependent-effect”.
For `COc1cc2c(cc1OC)-c1cc3ccc(OC)c(OCCNC(=O)CCCC[C@@H]4SC[C@@H]5NC(=O)N[C@@H]54)c3c[n+]1CC2`, the Activity [27] was “Active”.
In the case of `COc1ccc2cc3[n+](cc2c1OCCN)CCc1cc2c(cc1-3)OCO2.[Cl-]`, the Activity [10] is reported as “inactive” and the Drug uptake [13] is reported as “Time-dependent-effect”.
For `COc1ccc2cc3[n+](cc2c1OCCCN)CCc1cc2c(cc1-3)OCO2.[Cl-]`, the Activity [10] was “Active” and the Drug uptake [13] was “Time-dependent-effect”.
For `CCN1/C(=C/C=C/C=C/C2=[N+](CCCCCC(=O)NCCN3C(=O)CC(SC[C@H](N)C(=O)NCCCCCC(=O)N[C@@H](CC(N)=O)C(=O)N[C@@H](Cc4ccc(O)cc4)C(=O)N[C@@H](CO)C(=O)N[C@@H](CCCCN)C(=O)N4CCC[C@H]4C(=O)N[C@H](C(=O)N[C@@H](CC(=O)O)C(=O)N[C@@H](CCCNC(=N)N)C(=O)N[C@@H](CCC(N)=O)C(=O)N[C@@H](Cc4ccc(O)cc4)C(=O)N[C@@H](Cc4cnc[nH]4)C(=O)N[C@@H](Cc4ccccc4)C(=O)O)[C@@H](C)O)C3=O)c3ccc(S(=O)(=O)O)cc3C2(C)C)C(C)(C)c2cc(S(=O)(=O)O)ccc21` (stereo partly drawn), the Drug uptake [28] was “Active”.
In the case of `COc1cc2c(cc1OC)-c1cc3ccc(OC)c(OCCCN)c3c[n+]1CC2.[Cl-]`, the Activity [1] is reported as “Active”, the Activity [2] is reported as “Active” and the Activity [3] is reported as “Non-toxic”. For the same compound, the Activity [4] was “Non-toxic”, the Activity [5] was “Active” and the Activity [6] was “Active”. The Activity [7] was “Non-toxic”, the Activity [8] was “Non-toxic” and the Activity [9] was “Active”. The Activity [10] was “Active”, the Activity [11] was “Non-toxic” and the Activity [12] was “Active”. The Drug uptake [13] was “Time-dependent-effect”, the Activity [14] was “Non-toxic” and the Activity [15] was “Non-toxic”. For the same compound, the Activity [16] was “Active”, the Activity [17] was “Non-toxic” and the Activity [18] was “Non-toxic”. For the same compound, the inhibition in vivo at 10 mg/kg [19] was 65% and the Activity [20] was “Non-toxic”.
